Laboratory results reported in article PMC4669382 (mBio, 2015).

Tests used:
C. albicans Bar1 [1] = assay: 127 nM C. albicans Bar1 in 50 µM potassium phosphate solution; details: 37°C, up to 24 h
C. albicans Bar1 [2] = assay: Bar1 activity on bovine serum albumin; assay type: biochemical, Candida albicans; details: tested at high protein concentrations, data not shown
S. cerevisiae Bar1 = details: cited from earlier work
Bar1(D232A) [3] = assay: 127 nM Bar1; details: C. albicans, 37°C, up to 1 h
Bar1(D232A) [4] = assay: 60 nM Bar1; details: C. albicans, 37°C, up to 90 min

Substance	cleaved bond (C. albicans Bar1 [1])	further results
GFRLAAFGYFEPG	A5-A6, 1 h	–
GFRLTNAAYFEPG	T5-N6, 1 h	–
GFRAANFGYFEPG	A5-N6, 1 h	–
GFRLTNFGYFEAA	–	not cleaved (C. albicans Bar1 [1]): no products were detected
bovine serum albumin: bovine serum albumin tested as a Bar1 substrate	–	Bar1 activity on protein substrate (C. albicans Bar1 [2]): no detectable activity
pepstatin A	–	sensitivity of S. cerevisiae Bar1 to inhibitor (S. cerevisiae Bar1): insensitive
AARLTNFGYFEPG	T5-N6, 1 h	–
GFRLTNFGYEAAG	–	not cleaved (C. albicans Bar1 [1]): no products were detected
GFRLTNFGYFEPG	threonine5-asparagine6, major, 1 h	not cleaved (Bar1(D232A) [3]): no cleavage products were generated; not cleaved (Bar1(D232A) [4]): no detectable cleavage activity
GFRLTAAGYFEPG	T5-A6, 1 h	–
GFRLTNFGYAAPG	–	not cleaved (C. albicans Bar1 [1]): no products were detected
KFKLTNFGYFEPG	Thr5-Asn6, 1 h	–
GFRLTNFAAFEPG	T5-N6, 1 h	–
GFRLTNFGAAEPG	–	not cleaved (C. albicans Bar1 [1]): no products were detected
GFAATNFGYFEPG	T5-N6, 1 h	–
GAALTNFGYFEPG	T5-N6, 1 h	–
